Measured values: patent publication US20150044717A1, “DEVICES AND METHODS FOR OBSERVING EUKARYOTIC CELLS WITHOUT CELL WALL” (CENTRE NATIONAL DE LA RECHERCHE SCIENTIFIQUE, priority 2012, published 2015)

Tested on: cytokinetic ring of HeLa cells
Experiment: closure of the cytokinetic ring of cells in egg cups after addition of drugs (fluorescence microscopy)
Format: cell-based, human
Settings: for ring diameter as a function of time / closing speed: after addition of latrunculin A 1.5 μM
Method: For the experiments, a human HeLa cell line was used. The cells were stably transfected with a plasmid coding for actin monomers tagged with GFP. Cells were cultured in a growth medium containing DMEM with 10% FCS and 2 mM of L-Glutamine. After replating cells, Geneticin (0.5 mg/ml) was added to the medium.
During the experiments, cells were cultured in L-15 with 10% FCS and 2 mM of L-Glutamine.
Synchronized cells were obtained by mitotic shake-off. To have a sufficient number of dividing cells, cells were cultured in flasks of 75 cm^2 surface. The flasks were tapped on a solid surface to detach loosely attached cells, which rounded up before undergoing division. Alternatively, cells were synchronized with classical protocols such as the thymidine block, mitotic block (both Whitfield M L, Mol. Cell. Biol. 2000, 20(12): 4188-4198) or monastrol incubation (Straight A F et al., Science. 2003, 299:1743-1747).
The coverslips with the egg cups were exposed to nitrogen plasma for 30 s and then incubated with a solution of fibronectin (20 μg/ml in phosphate buffered saline (PBS), Sigma Aldrich) for 1 h. The sample could be stored in PBS for some hours. A cylindrically shaped plastic piece was placed in a 50 ml tube. The tube was filled with 6.5 ml of growth medium. The egg cup coverslip was horizontally placed in a tube, supported by the plastic cylinder. The suspension of synchronized cells was added on top of the coverslip. The tube was centrifuged for 5 min at 4000 rpm. The coverslip was carefully removed from the tube and installed in a home-made metallic holder. L-15 medium with 10% FCS and 2 mM L-Glutamine was immediately added. During the experiment the holder was closed by a plastic cover to prevent evaporation.
The drugs were added immediately before the experiment. The inventors used a concentration of 1.5 μM latrunculin A (Sigma Aldrich) (Delanoc-Ayari H. et al., Phys. Rev. Lett. 2004, 93(10): 108102) and 100 μM (−)-blebbistatin (Sigma Aldrich) (Straight A F et al., Science. 2003, 299:1743-1747).
The objective was a Plan Apo 60× objective (oil, 1.40 NA, Nikon). The images were captured and processed with the NIS Elements software (v3.10, SP3, Nikon).

[1] = blebbistatin 100 μM, HeLa cells in egg cups

| Compound | cell division (ring diameter as a function of time) [1] | closure of the cytokinetic ring [1] | ring diameter as a function of time / closing speed (HeLa cells in egg cups) | ring diameter as a function of time / closing speed (HeLa cells in egg cups, listed as latrunculin A) | cell division (in the presence of latrunculin A 1.5 μM, HeLa cells in egg cups) | closure of the cytokinetic ring (latrunculin A 1.5 μM, HeLa cells with GFP-actin in egg cups) |
| --- | --- | --- | --- | --- | --- | --- |
| Cc1ccc2c(c1)C(=O)C1(O)CCN(c3ccccc3)C1=N2 (single isomer, unassigned; (-)) [Blebbistatin, (−)-blebbistatin] | slows down and stops the division | the closure was slowed down and failed | – | – | – | – |
| C/C1=C/C(=O)O[C@@H]2C[C@@H](CC[C@H](C)/C=C\C=C\CC1)O[C@@](O)([C@@H]1CSC(=O)N1)C2 [Latrunculin A, latrunculin A] | – | – | a slight increase in closing speed, then a slight expansion of the ring | the speed is first slightly increasing, then the ring becomes larger again until the signal vanishes | Cells did not divide | the ring does not close completely |
